In PubChem BioAssay (NCI) one finds GI50 and TGI data, which are given here for eight compounds.

Where “and” joins values, the source holds several entries; their conditions need not be identical. Equal values may be shown once.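 Following 48 hours of exposure in 96-well plates, responses at five concentrations were used to interpolate endpoints linearly. Abbreviation: GI50, concentration required for 50% inhibition of growth. TGI marks complete inhibition of growth.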

Among the test systems are ACHN renal; HCT-116 colon; HOP-62 NSCLC; KM12 colon; M14 melanoma; NCI-H23 lung; NCI/ADR-RES ovarian; RXF 393 renal; SF-539 CNS; SK-OV-3 ovarian.
What all share (test): growth of human tumour cells (NCI), 48 h

Take `COc1ccc(CCN2CCCN3C2=Nc2ccccc2S3(=O)=O)cc1`: the GI50 in the test with ACHN renal was 0.736 µM; in the test with HCT-116 colon, 0.444 µM; with HOP-62 NSCLC, 0.556 µM; in the test with KM12 colon it was 0.451 µM; with M14 melanoma, 0.322 µM; in the test with NCI-H23 lung it was 0.474 µM. Besides, the GI50 is 0.3 µM with NCI/ADR-RES ovarian, 0.622 µM in the test on RXF 393 renal, 0.272 µM in the test with SF-539 CNS and 0.552 µM in the test with SK-OV-3 ovarian. Also, the TGI was above 100 µM with ACHN renal; 16.4 µM in the test with HCT-116 colon; above 100 µM in the test on HOP-62 NSCLC; above 100 µM in the test with KM12 colon; above 100 µM in the test with M14 melanoma; above 100 µM with NCI-H23 lung. The TGI with NCI/ADR-RES ovarian was 6.8 µM; with RXF 393 renal, above 100 µM; with SF-539 CNS, 1.04 µM; in the test with SK-OV-3 ovarian, above 100 µM.

For `C=CC(=O)N1C/C(=C\c2ccccc2)C(=O)/C(=C/c2ccccc2)C1`, the TGI in the test with ACHN renal came out at 4.53 µM; in the test with HCT-116 colon it was 0.397 µM; with HOP-62 NSCLC, 6.28 µM; with KM12 colon, 2.4 µM; in the test on M14 melanoma, 4.58 µM; in the test with NCI-H23 lung it was 5.43 µM. The TGI in the test on NCI/ADR-RES ovarian was above 27.1 µM; with RXF 393 renal, 4.43 µM; in the test on SF-539 CNS, 3.69 µM; in the test on SK-OV-3 ovarian, 7.58 µM. For the same compound, the GI50 with HCT-116 colon was 0.355 µM; in the test with KM12 colon it was 0.443 µM.

For the compound `N=C(N)/N=C(\N)c1c(-c2cc(O)ccc2O)nc2sccn12`, the GI50 was 20.8 µM with ACHN renal; 17.3 µM in the test on HCT-116 colon; 29.4 µM in the test with HOP-62 NSCLC; 34.8 µM in the test with KM12 colon; 19.8 µM in the test with M14 melanoma; 19.5 µM in the test with NCI-H23 lung. For the same compound, the GI50 was 82.3 µM in the test with NCI/ADR-RES ovarian, 20.6 µM in the test with RXF 393 renal, 20.4 µM in the test on SF-539 CNS and above 100 µM in the test with SK-OV-3 ovarian. Moreover, the TGI with ACHN renal is 40.5 µM; with HCT-116 colon it was 35.9 µM; in the test on HOP-62 NSCLC, 84.6 µM; in the test on KM12 colon it was above 100 µM; in the test on M14 melanoma, 37.9 µM; in the test on NCI-H23 lung, 34.1 µM. For the same compound, the TGI with NCI/ADR-RES ovarian was above 100 µM; with RXF 393 renal, 41.6 µM; in the test with SF-539 CNS it was 38.4 µM; in the test with SK-OV-3 ovarian, above 100 µM.

Regarding `COc1ccccc1/C=C/C(=O)c1c(O)cc2occc2c1OC`, the GI50 in the test on ACHN renal was 30 µM; in the test on HCT-116 colon it was 40.4 µM; in the test on HOP-62 NSCLC, 19.3 µM; with KM12 colon it was above 100 µM; in the test with M14 melanoma, above 100 µM; in the test on NCI-H23 lung it was 22.4 µM. In addition, the GI50 with NCI/ADR-RES ovarian is 29.6 µM; in the test on RXF 393 renal, 14.9 µM; in the test on SF-539 CNS, 24.3 µM; in the test with SK-OV-3 ovarian, 21.3 µM. In addition, the TGI was above 100 µM in the test on ACHN renal; above 100 µM in the test with HCT-116 colon; 43.9 µM with HOP-62 NSCLC; above 100 µM in the test on KM12 colon; above 100 µM with M14 melanoma; above 100 µM with NCI-H23 lung. The TGI with NCI/ADR-RES ovarian was above 100 µM; in the test on RXF 393 renal it was 42.6 µM; with SF-539 CNS, above 100 µM; in the test on SK-OV-3 ovarian it was 84.4 µM.

Regarding `NC(=O)/C(=C\c1ccncc1)c1cccc2ccccc12`, the TGI in the test with ACHN renal, in the test on HCT-116 colon, in the test on HOP-62 NSCLC, in the test with KM12 colon, with M14 melanoma and in the test on NCI-H23 lung was above 100 µM each time. Besides, the TGI in the test on NCI/ADR-RES ovarian, with RXF 393 renal, in the test with SF-539 CNS and in the test with SK-OV-3 ovarian was above 100 µM in each case.

As for `CCCCCCCCCCCCNC(=O)[C@H]1CSC(c2cc3ccccc3s2)N1` (some centres not stated), the GI50 in the test on ACHN renal is 4.9 µM; with HCT-116 colon, 1.06 µM; with HOP-62 NSCLC, 0.732 µM; with KM12 colon it was 1.1 µM; in the test on M14 melanoma it was 0.591 µM; in the test on NCI-H23 lung, 1.92 µM. For the same compound, the GI50 with NCI/ADR-RES ovarian is 1.66 µM; in the test with RXF 393 renal it was 0.942 µM; in the test with SF-539 CNS, 1.36 µM; in the test on SK-OV-3 ovarian, 4.16 µM. In addition, the TGI in the test with ACHN renal turned out to be 9.29 µM; with HCT-116 colon, 3.42 µM; in the test with HOP-62 NSCLC, 1.55 µM; in the test with KM12 colon it was 3.55 µM; in the test with M14 melanoma, 1.11 µM; in the test on NCI-H23 lung, 7.19 µM. For the same compound, the TGI turned out to be 6.83 µM in the test on NCI/ADR-RES ovarian, 2.21 µM in the test on RXF 393 renal, 4.79 µM in the test with SF-539 CNS and 8.38 µM in the test on SK-OV-3 ovarian.

`COC(=O)[C@@]1(Cc2ccccc2)[C@H]2c3cc(C(=O)N4CCCC4)n(Cc4ccc(OC)c(OC)c4)c3C[C@H]2CN1C(=O)c1ccccc1`: the GI50 in the test with ACHN renal was 17.8 µM; in the test with HCT-116 colon it was 7.28 µM; with HOP-62 NSCLC, 8.34 µM; in the test with KM12 colon, 9.44 µM; with M14 melanoma, 11.5 µM; in the test on NCI-H23 lung, 11.6 µM. Further, the GI50 in the test on NCI/ADR-RES ovarian is 11.4 µM; in the test with RXF 393 renal, 5.89 µM; with SF-539 CNS, 9.73 µM; in the test with SK-OV-3 ovarian, 18.9 µM. Further, the TGI with ACHN renal was above 50 µM; with HCT-116 colon, 13.8 µM; in the test on HOP-62 NSCLC, 17.8 µM; in the test on KM12 colon, 18.2 µM; with M14 melanoma, 25.7 µM; in the test with NCI-H23 lung it was 36.1 µM. Besides, the TGI in the test with NCI/ADR-RES ovarian was 35.4 µM; in the test with RXF 393 renal, 12.8 µM; with SF-539 CNS, 18.1 µM; with SK-OV-3 ovarian, above 50 µM.

In the case of `CN1CCC(CNc2ccc3ncc(-c4cccc(OC(F)(F)F)c4)n3n2)CC1`, the GI50 is 2.14 µM and 3.05 µM in the test with ACHN renal; 1.83 µM and 1.7 µM in the test with HCT-116 colon; 1.84 µM and 3.44 µM with HOP-62 NSCLC; 0.331 µM and 0.427 µM with KM12 colon; 1.74 µM and 1.48 µM with M14 melanoma; 2.47 µM and 3.96 µM in the test with NCI-H23 lung. Besides, the GI50 with NCI/ADR-RES ovarian was 2.84 µM and 5.26 µM; in the test on RXF 393 renal, 1.44 µM and 1.72 µM; with SF-539 CNS it was 1.68 µM and 1.51 µM; with SK-OV-3 ovarian, 1.89 µM and 3.94 µM. For the same compound, the TGI in the test with ACHN renal is 6.05 µM and > 10 µM; in the test on HCT-116 colon, 3.94 µM and 4.33 µM; in the test with HOP-62 NSCLC it was 4.25 µM and > 10 µM; in the test with KM12 colon, 1.78 µM and > 10 µM; in the test with M14 melanoma, 3.5 µM and 3.15 µM; in the test with NCI-H23 lung it was 9.48 µM and > 10 µM. Besides, the TGI with NCI/ADR-RES ovarian was 10.5 µM and > 10 µM; with RXF 393 renal, 3.68 µM and 6.48 µM; in the test with SF-539 CNS, 3.47 µM and 3.11 µM; in the test with SK-OV-3 ovarian it was 4.98 µM and > 10 µM.
